Reference: patent US10004701B2, “Methods and compositions for treating infection” (UNIVERSITY OF ROCHESTER, priority 2012, dated 2018)
Where a name gives a salt, the structure may show the parent alone. Read-outs that look alike come from different tables or passages of the source.

Tests used:
Experiment in all cases: AK assay 384-well format, Prestwick library screening
E. faecium = type: cell-based, Enterococcus faecium; conditions: 50 μM final drug concentration; for fold induction at 50 µM: Enterococcus faecium, 3 h
[1] = tested on: S. aureus strain USA300-0114; type: cell-based, Staphylococcus aureus; conditions: 50 μM final drug concentration; for fold induction at 50 µM: Staphylococcus aureus, USA300, 3 h
K. pneumoniae = type: cell-based, Klebsiella pneumoniae; conditions: 50 μM final drug concentration; for fold induction at 50 µM: Klebsiella pneumoniae, 3 h
[2] = tested on: A. baumannii strain 98-37-09; type: cell-based, Acinetobacter baumannii; conditions: 50 μM final drug concentration; for fold induction at 50 µM: Acinetobacter baumannii, 983709, 3 h
P. aeruginosa = type: cell-based, Pseudomonas aeruginosa; conditions: 50 μM final drug concentration; for fold induction at 50 µM: Pseudomonas aeruginosa, 3 h
E. cloacae = type: cell-based, Enterobacter cloacae; conditions: 50 μM final drug concentration; for fold induction at 50 µM: Enterobacter cloacae, 3 h
E. coli = type: cell-based, Escherichia coli; conditions: 50 μM final drug concentration; for fold induction at 50 µM: Escherichia coli, 3 h
[3] = cutoff for positive-scoring molecules 3-fold increase, read-out: AK-based Prestwick Library Screening Results, E. faecium (fold increase in extracellular AK activity)
[4] = cutoff for positive-scoring molecules 3-fold increase, read-out: AK-based Prestwick Library Screening Results, S. aureus (fold increase in extracellular AK activity)
[5] = cutoff for positive-scoring molecules 3-fold increase, read-out: AK-based Prestwick Library Screening Results, K. pneumoniae (fold increase in extracellular AK activity)
[6] = cutoff for positive-scoring molecules 3-fold increase, read-out: AK-based Prestwick Library Screening Results, A. baumannii (fold increase in extracellular AK activity)
[7] = cutoff for positive-scoring molecules 3-fold increase, read-out: AK-based Prestwick Library Screening Results, P. aeruginosa (fold increase in extracellular AK activity)
[8] = cutoff for positive-scoring molecules 3-fold increase, read-out: AK-based Prestwick Library Screening Results, E. cloacae (fold increase in extracellular AK activity)
[9] = cutoff for positive-scoring molecules 3-fold increase, read-out: AK-based Prestwick Library Screening Results, E. coli (fold increase in extracellular AK activity)
[10] = 384-well format, cutoff for positive-scoring molecules 3-fold increase, read-out: AK-based Prestwick Library Screening Results, E. faecium (increase in extracellular AK activity)
[11] = 384-well format, cutoff for positive-scoring molecules 3-fold increase, read-out: AK-based Prestwick Library Screening Results, S. aureus (increase in extracellular AK activity)
[12] = 384-well format, cutoff for positive-scoring molecules 3-fold increase, read-out: AK-based Prestwick Library Screening Results, K. pneumoniae (increase in extracellular AK activity)
[13] = 384-well format, cutoff for positive-scoring molecules 3-fold increase, read-out: AK-based Prestwick Library Screening Results, A. baumannii (increase in extracellular AK activity)
[14] = 384-well format, cutoff for positive-scoring molecules 3-fold increase, read-out: AK-based Prestwick Library Screening Results, P. aeruginosa (increase in extracellular AK activity)
[15] = 384-well format, cutoff for positive-scoring molecules 3-fold increase, read-out: AK-based Prestwick Library Screening Results, E. cloacae (increase in extracellular AK activity)
[16] = 384-well format, cutoff for positive-scoring molecules 3-fold increase, read-out: AK-based Prestwick Library Screening Results, E. coli (increase in extracellular AK activity)
[17] = planktonic E. faecium, cutoff for positive-scoring molecules 3-fold increase, read-out: AK-based Prestwick Library Screening Results, E. faecium (increase in extracellular AK activity)
[18] = planktonic S. aureus, cutoff for positive-scoring molecules 3-fold increase, read-out: AK-based Prestwick Library Screening Results, S. aureus (increase in extracellular AK activity)
[19] = planktonic K. pneumoniae, cutoff for positive-scoring molecules 3-fold increase, read-out: AK-based Prestwick Library Screening Results, K. pneumoniae (increase in extracellular AK activity)
[20] = planktonic A. baumannii, cutoff for positive-scoring molecules 3-fold increase, read-out: AK-based Prestwick Library Screening Results, A. baumannii (increase in extracellular AK activity)
[21] = planktonic P. aeruginosa, cutoff for positive-scoring molecules 3-fold increase, read-out: AK-based Prestwick Library Screening Results, P. aeruginosa (increase in extracellular AK activity)
[22] = planktonic E. cloacae, cutoff for positive-scoring molecules 3-fold increase, read-out: AK-based Prestwick Library Screening Results, E. cloacae (increase in extracellular AK activity)
[23] = planktonic E. coli, cutoff for positive-scoring molecules 3-fold increase, read-out: AK-based Prestwick Library Screening Results, E. coli (increase in extracellular AK activity)
[24] = planktonic E. faecium, 384-well, cutoff for positive-scoring molecules 3-fold increase, read-out: AK-based Prestwick Library Screening Results: E. faecium (increase in extracellular AK activity)
[25] = planktonic S. aureus, 384-well, cutoff for positive-scoring molecules 3-fold increase, read-out: AK-based Prestwick Library Screening Results: S. aureus (increase in extracellular AK activity)
[26] = planktonic K. pneumoniae, 384-well, cutoff for positive-scoring molecules 3-fold increase, read-out: AK-based Prestwick Library Screening Results: K. pneumoniae (increase in extracellular AK activity)
[27] = planktonic A. baumannii, 384-well, cutoff for positive-scoring molecules 3-fold increase, read-out: AK-based Prestwick Library Screening Results: A. baumannii (increase in extracellular AK activity)
[28] = planktonic P. aeruginosa, 384-well, cutoff for positive-scoring molecules 3-fold increase, read-out: AK-based Prestwick Library Screening Results: P. aeruginosa (increase in extracellular AK activity)
[29] = planktonic E. cloacae, 384-well, cutoff for positive-scoring molecules 3-fold increase, read-out: AK-based Prestwick Library Screening Results: E. cloacae (increase in extracellular AK activity)
[30] = planktonic E. coli, 384-well, cutoff for positive-scoring molecules 3-fold increase, read-out: AK-based Prestwick Library Screening Results: E. coli (increase in extracellular AK activity)

## CCC1NC(=O)c2cc(S(N)(=O)=O)c(Cl)cc2N1 (stereo not shown) [Quinethazone]
E. faecium; [3]
  fold induction at 50 µM: 0.9
[1]; [4]
  fold induction at 50 µM: 0.4
K. pneumoniae; [5]
  fold induction at 50 µM: 0.6
[2]; [6]
  fold induction at 50 µM: 0.5
P. aeruginosa; [7]
  fold induction at 50 µM: 0.5
E. cloacae; [8]
  fold induction at 50 µM: 0.4
E. coli; [9]
  fold induction at 50 µM: 0.6

## NC[C@H]1CC[C@H](C(=O)O)CC1 [Tranexamic acid]
E. faecium; [10]
  fold induction at 50 µM: 1.1
[1]; [11]
  fold induction at 50 µM: 0.7
K. pneumoniae; [12]
  fold induction at 50 µM: 0.7
[2]; [13]
  fold induction at 50 µM: 0.8
P. aeruginosa; [14]
  fold induction at 50 µM: 0.9
E. cloacae; [15]
  fold induction at 50 µM: 0.9
E. coli; [16]
  fold induction at 50 µM: 0.8

## COc1ccc2c(c1OC)CN1CCc3cc4c(cc3C1C2)OCO4 (stereo not shown) [(d,l)-Tetrahydroberberine]
E. faecium; planktonic, […]
  AK-based Prestwick Library Screening Results, E. faecium (fold increase in extracellular AK activity): 0.9
[1]; planktonic, […]
  AK-based Prestwick Library Screening Results, S. aureus (fold increase in extracellular AK activity): 0.7
K. pneumoniae; planktonic, […]
  AK-based Prestwick Library Screening Results, K. pneumoniae (fold increase in extracellular AK activity): 0.7
[2]; planktonic, […]
  AK-based Prestwick Library Screening Results, A. baumannii (fold increase in extracellular AK activity): 0.9
P. aeruginosa; planktonic, […]
  AK-based Prestwick Library Screening Results, P. aeruginosa (fold increase in extracellular AK activity): 0.8
E. cloacae; planktonic, […]
  AK-based Prestwick Library Screening Results, E. cloacae (fold increase in extracellular AK activity): 1.3
E. coli; planktonic, […]
  AK-based Prestwick Library Screening Results, E. coli (fold increase in extracellular AK activity): 0.8

## CC[C@H](c1ccc(O)cc1)[C@@H](CC)c1ccc(O)cc1 [Hexestrol]
E. faecium; [3]
  fold induction at 50 µM: 1.2
[1]; [4]
  fold induction at 50 µM: 0.7
K. pneumoniae; [5]
  fold induction at 50 µM: 0.7
[2]; [6]
  fold induction at 50 µM: 3
P. aeruginosa; [7]
  fold induction at 50 µM: 1.1
E. cloacae; [8]
  fold induction at 50 µM: 1.6
E. coli; [9]
  fold induction at 50 µM: 1.4

## O=[N+]([O-])c1cc([As](=O)(O)O)ccc1O [Roxarsone]
E. faecium; […]
  AK-based Prestwick Library Screening Results, E. faecium (fold increase in extracellular AK activity): 0.8
[1]; […]
  AK-based Prestwick Library Screening Results, S. aureus (fold increase in extracellular AK activity): 0.6
K. pneumoniae; […]
  AK-based Prestwick Library Screening Results, K. pneumoniae (fold increase in extracellular AK activity): 0.4
[2]; […]
  AK-based Prestwick Library Screening Results, A. baumannii (fold increase in extracellular AK activity): 0.5
P. aeruginosa; […]
  AK-based Prestwick Library Screening Results, P. aeruginosa (fold increase in extracellular AK activity): 0.5
E. cloacae; […]
  AK-based Prestwick Library Screening Results, E. cloacae (fold increase in extracellular AK activity): 0.5
E. coli; […]
  AK-based Prestwick Library Screening Results, E. coli (fold increase in extracellular AK activity): 0.4

## C[C@H](O)C(=O)Nc1c(I)c(C(=O)NC(CO)CO)c(I)c(C(=O)NC(CO)CO)c1I [Iopamidol]
E. faecium; [3]
  fold induction at 50 µM: 1
[1]; [4]
  fold induction at 50 µM: 1.3
K. pneumoniae; [5]
  fold induction at 50 µM: 1.2
[2]; [6]
  fold induction at 50 µM: 1.2
P. aeruginosa; [7]
  fold induction at 50 µM: 1.2
E. cloacae; [8]
  fold induction at 50 µM: 1.4
E. coli; [9]
  fold induction at 50 µM: 1.2

## O=c1ccc2cc(O[C@@H]3O[C@H](CO)[C@@H](O)[C@H](O)[C@H]3O)c(O)cc2o1 [Esculin Hydrate]
E. faecium; planktonic, […], read-out: AK-based Prestwick Library Screening Results, E. faecium (fold increase in extracellular AK activity)
  fold induction at 50 µM: 0.9
[1]; planktonic, […], read-out: AK-based Prestwick Library Screening Results, S. aureus (fold increase in extracellular AK activity)
  fold induction at 50 µM: 0.7
K. pneumoniae; planktonic, […], read-out: AK-based Prestwick Library Screening Results, K. pneumoniae (fold increase in extracellular AK activity)
  fold induction at 50 µM: 0.6
[2]; planktonic, […], read-out: AK-based Prestwick Library Screening Results, A. baumannii (fold increase in extracellular AK activity)
  fold induction at 50 µM: 0.8
P. aeruginosa; planktonic, […], read-out: AK-based Prestwick Library Screening Results, P. aeruginosa (fold increase in extracellular AK activity)
  fold induction at 50 µM: 0.8
E. cloacae; planktonic, […], read-out: AK-based Prestwick Library Screening Results, E. cloacae (fold increase in extracellular AK activity)
  fold induction at 50 µM: 0.9
E. coli; planktonic, […], read-out: AK-based Prestwick Library Screening Results, E. coli (fold increase in extracellular AK activity)
  fold induction at 50 µM: 0.7

## CC(C)(C)NCC(O)COc1cccc2c1CCC(=O)N2 (stereo not shown) [Carteolol hydrochloride]
E. faecium; [17]
  fold induction at 50 µM: 1
[1]; [18]
  fold induction at 50 µM: 1.1
K. pneumoniae; [19]
  fold induction at 50 µM: 0.8
[2]; [20]
  fold induction at 50 µM: 1
P. aeruginosa; [21]
  fold induction at 50 µM: 1.1
E. cloacae; [22]
  fold induction at 50 µM: 1.1
E. coli; [23]
  fold induction at 50 µM: 1.2

## CN(C(=O)CN(CCO)CC(=O)N(C)C(C)(C)Cc1ccccc1)C(C)(C)Cc1ccccc1 [Oxethazaine]
E. faecium; [24]
  fold induction at 50 µM: 1
[1]; [25]
  fold induction at 50 µM: 1
K. pneumoniae; [26]
  fold induction at 50 µM: 1.5
[2]; [27]
  fold induction at 50 µM: 4.2
P. aeruginosa; [28]
  fold induction at 50 µM: 1
E. cloacae; [29]
  fold induction at 50 µM: 1.5
E. coli; [30]
  fold induction at 50 µM: 1.4

## O=C1CCC(N2C(=O)c3ccccc3C2=O)C(=O)N1 (stereo not shown) [Thalidomide]
E. faecium; [10]
  fold induction at 50 µM: 1
[1]; [11]
  fold induction at 50 µM: 1
K. pneumoniae; [12]
  fold induction at 50 µM: 0.8
[2]; [13]
  fold induction at 50 µM: 0.9
P. aeruginosa; [14]
  fold induction at 50 µM: 0.9
E. cloacae; [15]
  fold induction at 50 µM: 1.1
E. coli; [16]
  fold induction at 50 µM: 1

## CC(C)COCC(CN(Cc1ccccc1)c1ccccc1)N1CCCC1 (stereo not shown) [Bepridil hydrochloride]
E. faecium; [17]
  fold induction at 50 µM: 1.1
[1]; [18]
  fold induction at 50 µM: 1.6
K. pneumoniae; [19]
  fold induction at 50 µM: 1
[2]; [20]
  fold induction at 50 µM: 1.5
P. aeruginosa; [21]
  fold induction at 50 µM: 1.2
E. cloacae; [22]
  fold induction at 50 µM: 1.4
E. coli; [23]
  fold induction at 50 µM: 1.3

## CN(C)[C@@H]1C(O)=C(C(N)=O)C(=O)[C@@]2(O)C(O)=C3C(=O)c4c(O)cccc4[C@@](C)(O)[C@H]3[C@H](O)[C@@H]12 [Oxytetracycline dihydrate]
E. faecium; [24]
  fold induction at 50 µM: 0.9
[1]; [25]
  fold induction at 50 µM: 3.4
K. pneumoniae; [26]
  fold induction at 50 µM: 0.2
[2]; [27]
  fold induction at 50 µM: 5.3
P. aeruginosa; [28]
  fold induction at 50 µM: 0.5
E. cloacae; [29]
  fold induction at 50 µM: 1.1
E. coli; [30]
  fold induction at 50 µM: 1

## COc1cc2nc(N(C)CCCNC(=O)C3CCCO3)nc(N)c2cc1OC (stereo not shown) [Alfuzosin hydrochloride]
E. faecium; [24]
  fold induction at 50 µM: 0.9
[1]; [25]
  fold induction at 50 µM: 0.3
K. pneumoniae; [26]
  fold induction at 50 µM: 0.4
[2]; [27]
  fold induction at 50 µM: 0.4
P. aeruginosa; [28]
  fold induction at 50 µM: 0.4
E. cloacae; [29]
  fold induction at 50 µM: 0.4
E. coli; [30]
  fold induction at 50 µM: 0.5
